pEC50: −log10 of the molar value.

For this assay, the system named is HIV-1 single-round infectious reporter virus. The assay can be described thus: Single-round infectious HIV-1 luciferase reporter virus infection of HeLa CD4 CCR5 cells. The class given is cell-based. The conditions noted are these: Human immunodeficiency virus 1, HeLa-CD4/CCR5, 72 h, read-out: EC50 Group from Table 1. As for the experimental part:
• Virus production—Human embryonic Kidney cell line, 293, propagated in Dulbecco's Modified Eagle Medium (Life Technologies, Gaithersburg, Md.) containing 10% fetal Bovine serum (FBS, Sigma, St. Louis, Mo.). • Virus infection—Human epithelial cell line, HeLa, expressing the HIV-1 receptors CD4 and CCR5 was propagated in Dulbecco's Modified Eagle Medium (Life Technologies, Gaithersburg, Md.) containing 10% fetal Bovine serum (FBS, Sigma, St. Louis, Mo.) and supplemented with 0.2 mg/mL Geneticin (Life Technologies, Gaithersburg, Md.) and 0.4 mg/mL Zeocin (Invitrogen, Carlsbad, Calif.). Virus-Single-round infectious reporter virus was produced by co-transfecting human embryonic Kidney 293 cells with an HIV-1 envelope DNA expression vector and a proviral cDNA containing an envelope deletion mutation and the luciferase reporter gene inserted in place of HIV-1 nef sequences (Chen et al, Ref 41). Transfections were performed using lipofectAMINE PLUS reagent as described by the manufacturer (Life Technologies, Gaithersburg, Md.). Experiment • 1. Compound was added to HeLa CD4 CCR5 cells plated in 96 well plates at a cell density of 1×10^4 cells per well in 100 μl Dulbecco's Modified Eagle Medium containing 10% fetal Bovine serum at a concentration of <20 μM. • 2. 100 μl of single-round infectious reporter virus in Dulbecco's Modified Eagle Medium was then added to the plated cells and compound at an approximate multiplicity of infection (MOI) of 0.01, resulting in a final volume of 200 μl per well and a final compound concentration of <10 μM. • 3. Samples were harvested 72 h after infection. • 4. Viral infection was monitored by measuring luciferase expression from viral DNA in the infected cells using a luciferase reporter gene assay kit (Roche Molecular Biochemicals, Indianapolis, Ind.). Infected cell supernatants were removed and 50 μl of Dulbecco's Modified Eagle Medium (without phenol red) and 50 μl of luciferase assay reagent reconstituted as described by the manufacturer (Roche Molecular Biochemicals, Indianapolis, Ind.) was added per well. Luciferase activity was then quantified by measuring luminescence using a Wallac microbeta scintillation counter. • 5. The percent inhibition for each compound was calculated by quantifying the level of luciferase expression in cells infected in the presence of each compound as a percentage of that observed for cells infected in the absence of compound and subtracting such a determined value from 100. • 6. An EC50 provides a method for comparing the antiviral potency of the compounds of this invention. The effective concentration for fifty percent inhibition (EC50) was calculated with the Microsoft Excel Xlfit curve fitting software. For each compound, curves were generated from percent inhibition calculated at 10 different concentrations by using a four paramenter logistic model (model 205). Table 1 is the key for the data in Tables 2-4.
On the technique in general: A reporter such as luciferase makes a cellular process visible.
Take `N#CC(C(=O)c1c[nH]c2c(Cl)ncnc12)N1CCN(C(=O)c2ccccc2)CC1` (stereo not drawn) [Example 1, 2-(4-Benzoyl-piperazin-1-yl)-3-(4-chloro-5H-pyrrolo [3,2-d]pyrimidin-7-yl)-3-oxo-propionitrile]: the pEC50 was over 6.00.

For the compound `N#CC(=C1CCN(C(=O)C(=O)c2c[nH]c3c(-c4cncnc4)ncnc23)CC1)c1ccccc1` [Example 34, 2-(1-(2-Oxo-2-(4-(pyrimidin-5-yl)-5H-pyrrolo[3,2-d]pyrimidin-7-yl)acetyl)piperidin-4-ylidene)-2-phenylacetonitrile], the pEC50 is over 6.00.

Regarding `N#CC(=C1CCN(C(=O)C(=O)c2c[nH]c3c(Cl)ncnc23)CC1)c1ccccc1` [Example 33, 2-(1-(2-(4-Chloro-5H-pyrrolo[3,2-d]pyrimidin-7-yl)-2-oxoacetyl)piperidin-4-ylidene)-2-phenylacetonitrile], the pEC50 was over 6.00.

Regarding `O=C(C(=O)N1CCN(C(=O)c2ccccc2)CC1)c1c[nH]c2c(-c3cccnc3)ncnc12` [Example 25, 1-(4-Benzoylpiperazin-1-yl)-2-(4-(pyridin-3-yl)-5H -pyrrolo[3,2-d]pyrimidin-7-yl)ethane-1,2-dione], the pEC50 was over 6.00.

Regarding `COc1ccc(-c2ccn(-c3ncnc4c(C(=O)C(=O)N5CCN(C(=O)c6ccccc6)CC5)c[nH]c34)n2)cc1` [Example 17, 1-(4-Benzoylpiperazin-1-yl)-2-(4-(3-(4-methoxyphenyl)-1H-pyrazol-1-yl)-5H-pyrrolo[3,2-d]pyrimidin-7-yl)ethane-1,2-dione], the pEC50 was over 6.00.

In the case of `O=C(C(=O)N1CCN(C(=O)c2ccccc2)CC1)c1c[nH]c2c(-n3nccn3)ncnc12` [Example 8, 1-(4-(2H-1,2,3-Triazol-2-yl)-5H-pyrrolo[3,2-d]pyrimidin-7-yl)-2-(4-benzoylpiperazin-1-yl)ethane-1,2-dione], the pEC50 is over 6.00.

As to `N#CC(=C1CCN(C(=O)C(=O)c2c[nH]c3c(-c4cc[nH]n4)ncnc23)CC1)c1ccccc1` [Example 43, 2-(1-(2-(4-(1H-pyrazol-3-yl)-5H-pyrrolo[3,2-d]pyrimidin-7-yl)-2-oxoacetyl)piperidin-4-ylidene)-2-phenylacetonitrile], the pEC50 was over 6.00.

Take `N#CC(=C1CCN(C(=O)C(=O)c2c[nH]c3c(-n4cccn4)ncnc23)CC1)c1ccccc1` [Example 42, 2-(1-(2-(4-(1H-Pyrazol-1-yl)-5H-pyrrolo[3,2-d]pyrimidin-7-yl)-2-oxoacetyl)piperidin-4-ylidene)-2-phenylacetonitrile]: the pEC50 was over 6.00.

Turning to `O=C(C(=O)N1CCN(C(=O)c2ccccc2)CC1)c1c[nH]c2c(-n3ccnn3)ncnc12` [Example 21, 1-(4-(1H-1,2,3-Triazol-1-yl)-5H-pyrrolo[3,2-d]pyrimidin-7-yl)-2-(4-benzoylpiperazin-1-yl)ethane-1,2-dione], the pEC50 is over 6.00.

Take `N#Cc1ncnc2c(C(=O)C(=O)N3CCN(C(=O)c4ccccc4)CC3)c[nH]c12` [Example 12, 7-(2-(4-Benzoylpiperazin-1-yl)-2-oxoacetyl)-5H-pyrrolo[3,2-d]pyrimidine-4-carbonitrile]: the pEC50 was over 6.00.

On to `O=C(C(=O)N1CCN(c2nccc3ccccc23)CC1)c1c[nH]c2c(Cl)ncnc12` [Example 30, 1-(4-Chloro-5H-pyrrolo[3,2-d]pyrimidin-7-yl)-2-(4-(isoquinolin-1-yl)piperazin-1-yl)ethane-1,2-dione], for which the pEC50 was over 6.00.

As to `O=C(C(=O)N1CCN(C(=O)c2ccccc2)CC1)c1c[nH]c2c(-c3cnccn3)ncnc12` [Example 27, 1-(4-Benzoylpiperazin-1-yl)-2-(4-(pyrazin-2-yl)-5H -pyrrolo[3,2-d]pyrimidin-7-yl)ethane-1,2-dione], the negative-log EC50 (pEC50) is over 6.00.

As for `O=C(C(=O)N1CCN(C(=O)c2ccccc2)CC1)c1c[nH]c2c(N3CCN(C(=O)c4cc[nH]n4)CC3)ncnc12` [Example 41, 1-(4-(4-(1H-Pyrazole-3-carbonyl)piperazin-1-yl)-5H -pyrrolo[3,2-d]pyrimidin-7-yl)-2-(4-benzoylpiperazin-1-yl)ethane-1,2-dione], the pEC50 was over 6.00.

Regarding `O=C(C(=O)N1CCC(=C(c2ccccc2)c2nnco2)CC1)c1c[nH]c2c(Cl)ncnc12` [Example 35], the pEC50 was over 6.00.

In the case of `N#CC(=C1CCN(C(=O)C(=O)c2c[nH]c3c(-n4cccn4)ncnc23)CC1)c1ccccn1` [Example 38, 2-(1-(2-(4-(1H-pyrazol-1-yl)-5H-pyrrolo[3,2-d]pyrimidin-7-yl)-2-oxoacetyl)piperidin-4-ylidene)-2-(pyridin-2-yl)acetonitrile], the pEC50 is over 6.00.

For `O=C(C(=O)N1CCN(C(=O)c2ccccc2)CC1)c1c[nH]c2c(-c3ccncc3)ncnc12` [Example 26, 1-(4-Benzoylpiperazin-1-yl)-2-(4-(pyridin-4-yl)-5H -pyrrolo[3,2-d]pyrimidin-7-yl)ethane-1,2-dione], the pEC50 was over 6.00.

Turning to `O=C(C(=O)N1CCN(c2nccc3ccccc23)CC1)c1c[nH]c2c(-c3cnccn3)ncnc12` [Example 31, 1-(4-(Isoquinolin-1-yl)piperazin-1-yl)-2-(4-(pyrazin-2-yl)-5H-pyrrolo[3,2-d]pyrimidin-7-yl)ethane-1,2-dione], the pEC50 is over 6.00.

Turning to `COc1ccccc1-c1ccn(-c2ncnc3c(C(=O)C(=O)N4CCN(C(=O)c5ccccc5)CC4)c[nH]c23)n1` [Example 18, 1-(4-Benzoylpiperazin-1-yl)-2-(4-(3-(2-methoxyphenyl)-1H-pyrazol-1-yl)-5H-pyrrolo[3,2-d]pyrimidin-7-yl)ethane-1,2-dione], the pEC50 is over 6.00.

In the case of `O=C(C(=O)N1CCN(C(=O)c2ccccc2)CC1)c1c[nH]c2c(-n3cccn3)ncnc12` [Example 6, 1-(4-Benzoyl-piperazin-1-yl)-2-(4-pyrazol-1-yl-5H -pyrrolo[3,2-d]pyrimidin-7-yl)-ethane-1,2-dione], the pEC50 was over 6.00.

As to `COc1ncnc2c(C(=O)C(=O)N3CCN(C(=O)c4ccccc4)CC3)c[nH]c12` [Example 5, 1-(4-Benzoyl-piperazin-1-yl)-2-(4-methoxy-5H-pyrrolo[3,2-d]pyrimidin-7-yl)-ethane-1,2-dione], the pEC50 is over 6.00.

Turning to `O=C(C(=O)N1CCN(C(=O)c2ccccc2)CC1)c1c[nH]c2c(-c3cncnc3)ncnc12` [Example 28, 1-(4-Benzoylpiperazin-1-yl)-2-(4-(pyrimidin-5-yl)-5H-pyrrolo[3,2-d]pyrimidin-7-yl)ethane-1,2-dione], the pEC50 was over 6.00.

Regarding `CC(=O)c1ncnc2c(C(=O)C(=O)N3CCN(C(=O)c4ccccc4)CC3)c[nH]c12` [Example 11, 1-(4-Acetyl-5H-pyrrolo[3,2-d]pyrimidin-7-yl)-2-(4-benzoylpiperazin-1-yl)ethane-1,2-dione], the pEC50 is over 6.00.

In the case of `O=C(C(=O)N1CCC(=C(c2ccccc2)c2nnco2)CC1)c1c[nH]c2c(-n3cncn3)ncnc12` [Example 36, 1-(4-((1,3,4-Oxadiazol-2-yl)(phenyl)methylene)piperidin-1-yl) -2-(4-(1H-1,2,4-triazol-1-yl)-5H-pyrrolo[3,2-d]pyrimidin-7-yl)ethane-1,2-dione], the pEC50 is over 6.00.

On to `O=C(C(=O)N1CCN(c2ncnc3ccccc23)CC1)c1c[nH]c2c(-n3cccn3)ncnc12` [Example 40, 1-(4-(1H-Pyrazol-1-yl)-5H-pyrrolo[3,2-d]pyrimidin-7-yl)-2-(4-(quinazolin-4-yl)piperazin-1-yl)ethane-1,2-dione], for which the pEC50 was over 6.00.

Take `O=C(C(=O)N1CCN(c2nccc3ccccc23)CC1)c1c[nH]c2c(-n3cccn3)ncnc12` [Example 32, 1-(4-(1H-Pyrazol-1-yl)-5H-pyrrolo[3,2-d]pyrimidin-7-yl)-2-(4-(isoquinolin-1-yl)piperazin-1-yl)ethane-1,2-dione]: the pEC50 is over 6.00.

For the compound `O=C(C(=O)N1CCN(C(=O)c2ccccc2)CC1)c1c[nH]c2c(-n3ccc(-c4ccccn4)n3)ncnc12` [Example 39, 1-(4-Benzoylpiperazin-1-yl)-2-(4-(3-(pyridin-2-yl) -1H-pyrazol-1-yl)-5H-pyrrolo[3,2-d]pyrimidin-7-yl)ethane-1,2-dione], the pEC50 is over 6.00.

Consider `O=C(C(=O)N1CCN(C(=O)c2ccccc2)CC1)c1c[nH]c2c(-n3ccc(-c4cccc(C(F)(F)F)c4)n3)ncnc12` [Example 19, 1-(4-Benzoylpiperazin-1-yl)-2-(4-(3-(3-(trifluoromethyl)phenyl)-1H-pyrazol-1-yl)-5H-pyrrolo[3,2-d]pyrimidin-7-yl)ethane-1,2-dione], for which the pEC50 was over 6.00.

One may read the pEC50 as the negative decadic logarithm of the EC50, by convention in mol/L.
